Data reported in patent US10239851B2 (priority 2014, dated 2019).
Like-named read-outs stand apart in the source and are kept apart here.

How the values were obtained:
[1] = LD50 of the carboxylic acid derivative in mice via the caudal vein; conditions: mouse, in vivo, intravenous, solution in physiological saline pH 7.4
From the text: In addition, the inventors dissolved the compound of the present invention having the following formula in physiological saline, adjusted the pH of the solution to 7.4, and administered the solution to mice through the caudal vein.

[2] = In vitro dissociation of the water soluble taxane derivatives in blood plasma of rabbit; assay type: in vitro ADME, New Zealand white rabbits; conditions: 37° C.
Method: The obtained water soluble taxane derivatives were formulated as 0.2 mg/ml aqueous solutions. […] After 5 min, 20 min and 60 min of incubation, 0.2 ml of solutions were respectively taken from each of the samples, and added to acetonitrile (0.4 ml) cooled to −20° C. for precipitation of protein.

[3] = In vitro dissociation of the water soluble taxane derivatives in blood plasma of rat; assay type: in vitro ADME, SD rats; conditions: 37° C.
Method: The obtained water soluble taxane derivatives were formulated as 0.2 mg/ml aqueous solutions. […] After 2 min, 5 min and 10 min of incubation, 0.2 ml of solutions were respectively taken from each of the samples, and added to acetonitrile (0.4 ml) cooled to −20° C. for precipitation of protein.

[4] = rats, 5 mg/kg intravenous, 5 min after administration
Method: (§1) After 5 min of administration, 0.3 ml of venous blood was taken from the retrobulbar venous plexus of the rats, placed in heparinized tubes, and centrifuged at 11,000 rpm for 5 min. Blood plasma was separated, and the concentrations of the compounds in the blood plasma were determined by liquid chromatography-mass spectrometry.

[5] = rats, 5 mg/kg intravenous, 5 min after administration; remark: listed apart in the source
Method: (§2) After 5 min of administration, 0.3 ml of venous blood was taken from the retrobulbar venous plexus of the rats, placed in heparinized tubes, and centrifuged at 11,000 rpm for 5 min. Plasma was separated, and the concentrations of the compounds in the plasma were determined by liquid chromatography □-mass spectrometry.

[6] = Solubility of the water soluble taxane derivatives in physiological saline; assay type: physicochemical
[7] = test system: mice; conditions: cited from earlier work
[8] = test system: mice; conditions: intravenous, equimolar amounts to propofol
[9] = test system: KM mice; assay: ED50 and LD50 test concerning anesthesia (sequential method) in mice; assay type: in vivo; conditions: confirmation test; for ED50: Mus musculus, anesthesia (loss of righting reflex); for ED50 / Mouse LD50: caudal vein injection
Method: (§3) Test samples for the experiment on rabbit were formulated to have corresponding concentrations based on the results from a preliminary test. […] Rats and mice were administered with samples having a fixed concentration of drugs, while the volume of administration altered according to actual situation. The volume of administration to rabbits was 1 mL/kg body weight.
(§4) ED50 and LD50 values concerning anesthesia were determined using a sequential method. Healthy KM mice (male), SD rats (male) and New Zealand White rabbits were used for test. […] For rabbits, the compounds were administered by injection at a constant rate via ear vein for 30 seconds. Before the test, a preliminary test was conducted to determine an approximate dosage (volume of administration) that leads to anesthetization (or death) of animals, which was set as the middle dosage in the formal test. […] The disappearance of righting reflex or death was used as indicators of pharmacological efficacy or toxicity, respectively. The formal test began with the administration of the middle dosage. If animals were anesthetized, a lower dosage was administered; if animals were not anesthetized, a higher dosage was administered, until the cycle was repeated for 3-4 times. LD50 and ED50 were calculated by a sequential method aot425 software. TI was calculated according to the following equation: TI=LD50/ED50.

[10] = test system: Kunming mice; assay: Latent period and persistent period of anesthesia in mice; assay type: in vivo
[11] = test system: SD rats; assay: ED50 and LD50 test concerning anesthesia (sequential method) in rats; assay type: in vivo; conditions: for ED50: Rattus norvegicus, anesthesia (loss of righting reflex); for ED50 / Rat LD50: caudal vein injection
Method: as §3, §4

[12] = test system: human prostate cancer PC-3; conditions: 14 mg/kg;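 further: human prostate cancer PC-3 cells implanted under the skin of nude mice to form the xenograft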
From the text: Test of the inhibitory activity of the water soluble docetaxel derivatives on subcutaneously xenografted tumor of human prostate cancer PC-3 in nude mice: evaluating and comparing the inhibitory activity of the water soluble docetaxel derivatives and docetaxel on subcutaneously xenografted tumor of human prostate cancer PC-3 in nude mice.
Human prostate cancer PC-3 cells were subcutaneously inoculated into nude mice. After the tumor volume reached 100-150 mm^3, the animals were randomly divided into several groups, and administered with the water soluble docetaxel derivatives of the present invention and docetaxel, respectively once on the same day (D0). The tumor volume was measured 2-3 times per week, the animals were weighed and the data were recorded until day 20 (D20) after grouping.
(§5) The tumor volume (V) was calculated according to the equation: V=½×a×b^2, wherein a and b represent the length and the width, respectively.
(§6) T/C (%)=(T−T0)/(C−C0)×100, wherein T and C represent the tumor volume at the end of the experiment; and T0 and C0 represent the tumor volume at the beginning of the experiment.

[13] = in vivo; conditions: male, SD, rat, iv, 5 mg/kg
Method: as §2

[14] = in vivo; conditions: male, SD, rat, iv, 5 mg/kg; remark: listed apart in the source
Method: as §1

[15] = test system: human ovarian cancer SK-OV-3
From the text: Test of the inhibitory activity of the water soluble paclitaxel derivatives on subcutaneously xenografted tumor of human ovarian cancer SK-OV-3 in nude mice: evaluating and comparing the inhibitory activity of the water soluble paclitaxel derivatives of the present invention, paclitaxel and Abraxane® on subcutaneously xenografted tumor of human ovarian cancer SK-OV-3 in nude mice.
Human ovarian cancer SK-OV-3 cells were subcutaneously inoculated to nude mice. After the tumor volume reached 100-150 mm^3, the animals were randomly divided into groups (D0), and administered with the water soluble paclitaxel derivatives of the present invention, paclitaxel, and Abraxane®, respectively once per day for 5 days. The tumor volume was measured 2-3 times per week, the animals were weighed and the data were recorded until day 22 (D22) after grouping.
as §5, §6

[16] = dosage 1.25 * ED50 (propofol 15 mg/kg, fospropofol 85 mg/kg)
[17] = fospropofol 136 mg/kg (2 * ED50)
[18] = intravenous injection, dosage 2 * ED50, 3 mg/ml solution
[19] = propofol 25 mg/kg (2 * ED50), results from the present lab
[20] = PC-3 xenograft, nude mice, D0 IV, single dose, D20
[21] = D22, 24 mg/kg (paclitaxel 16 mg/kg) D0-4 IV

CN(C)CC[C@@H](F)C(=O)O.Cl
LD50 [1]: > 1500 mg/kg

CC(=O)O[C@H]1C(=O)[C@@]2(C)[C@H]([C@H](OC(=O)c3ccccc3)[C@]3(O)C[C@H](OC(=O)[C@H](OC(=O)[C@H](F)CCN(C)C)[C@@H](NC(=O)c4ccccc4)c4ccccc4)C(C)=C1C3(C)C)[C@]1(OC(C)=O)CO[C@@H]1C[C@@H]2O.Cl [Compound 01, 2′-O-[4-(N,N-dimethyl)amino-2(R)-fluorobutyryl]paclitaxel Hydrochloride]
dissociation percent ([2]; 5 min): 76.5% | dissociation percent ([2]; 20 min): 98.3% | dissociation percent ([2]; 60 min): 100% | dissociation percent ([3]; 2 min): 63.5% | dissociation percent ([3]; 5 min): 96.8% | dissociation percent ([3]; 10 min): 100% | detection of the administered derivative in the blood plasma [4]: cannot be detected | mean concentration of paclitaxel in the blood plasma [4]: 1789 ng/mL

CC(=O)O[C@H]1C(=O)[C@@]2(C)[C@H]([C@H](OC(=O)c3ccccc3)[C@]3(O)C[C@H](OC(=O)[C@H](OC(=O)[C@@H](F)CCN(C)C)[C@@H](NC(=O)c4ccccc4)c4ccccc4)C(C)=C1C3(C)C)[C@]1(OC(C)=O)CO[C@@H]1C[C@@H]2O.Cl [Compound 02, 2′-O-[4-(N,N-dimethyl)amino-2(S)-fluorobutyryl]paclitaxel hydrochloride]
dissociation percent ([2]; 5 min): 68.2% | dissociation percent ([2]; 20 min): 97.5% | dissociation percent ([2]; 60 min): 100% | dissociation percent ([3]; 2 min): 59.8% | dissociation percent ([3]; 5 min): 95.6% | dissociation percent ([3]; 10 min): 100% | detection of the administered derivative in the blood plasma [4]: cannot be detected

CC(=O)O[C@H]1C(=O)[C@@]2(C)[C@H]([C@H](OC(=O)c3ccccc3)[C@]3(O)C[C@H](OC(=O)[C@H](OC(=O)C(F)CCN(C)C)[C@@H](NC(=O)c4ccccc4)c4ccccc4)C(C)=C1C3(C)C)[C@]1(OC(C)=O)CO[C@@H]1C[C@@H]2O.Cl (stereo partly drawn) [Compound 03, 2′-O-[4-(N,N-dimethyl)amino-2(R,S)-fluorobutyryl]paclitaxel Hydrochloride]
dissociation percent ([2]; 5 min): 75.7% | dissociation percent ([2]; 20 min): 93.5% | dissociation percent ([2]; 60 min): 100% | dissociation percent ([3]; 2 min): 61.8% | dissociation percent ([3]; 5 min): 93.1% | dissociation percent ([3]; 10 min): 100% | detection of the administered derivative in the blood plasma [4]: cannot be detected

CC(=O)OC12COC1CC(O)C1(C)C(=O)C(O)C3=C(C)C(OC(=O)C(OC(=O)C(F)CCN(C)C)C(NC(=O)OC(C)(C)C)c4ccccc4)CC(O)(C(OC(=O)c4ccccc4)C21)C3(C)C.Cl [Compound 04, 2′-O-[4-(N,N-dimethyl)amino-2(R)-fluorobutyryl]docetaxel Hydrochloride]
detection of the administered derivative in the blood plasma [5]: cannot be detected | dissociation percent ([2]; 5 min): 80.2% | dissociation percent ([2]; 20 min): 93.5% | dissociation percent ([2]; 60 min): 100% | dissociation percent ([3]; 2 min): 58.6% | dissociation percent ([3]; 5 min): 92.6% | dissociation percent ([3]; 10 min): 100%

CC(=O)O[C@@]12CO[C@@H]1C[C@H](O)[C@@]1(C)C(=O)[C@H](O)C3=C(C)[C@@H](OC(=O)[C@H](OC(=O)[C@@H](F)CCN(C)C)[C@@H](NC(=O)OC(C)(C)C)c4ccccc4)C[C@@](O)([C@@H](OC(=O)c4ccccc4)[C@H]21)C3(C)C.Cl [Compound 05, 2′-O-[4-(N,N-dimethyl)amino-2(S)-fluorobutyryl]docetaxel hydrochloride]
detection of the administered derivative in the blood plasma [5]: cannot be detected | dissociation percent ([2]; 5 min): 79.3% | dissociation percent ([2]; 20 min): 91.8% | dissociation percent ([2]; 60 min): 100% | dissociation percent ([3]; 2 min): 56.4% | dissociation percent ([3]; 5 min): 91.1% | dissociation percent ([3]; 10 min): 100%

CC(=O)O[C@@]12CO[C@@H]1C[C@H](O)[C@@]1(C)C(=O)[C@H](O)C3=C(C)[C@@H](OC(=O)[C@H](OC(=O)C(F)CCN(C)C)[C@@H](NC(=O)OC(C)(C)C)c4ccccc4)C[C@@](O)([C@@H](OC(=O)c4ccccc4)[C@H]21)C3(C)C.Cl (stereo partly drawn) [Compound 06, 2′-O-[4-(N,N-dimethyl)amino-2(R,S)-fluorobutyryl]docetaxel hydrochloride]
detection of the administered derivative in the blood plasma [5]: cannot be detected | dissociation percent ([2]; 5 min): 75.6% | dissociation percent ([2]; 20 min): 98.6% | dissociation percent ([2]; 60 min): 100% | dissociation percent ([3]; 2 min): 56.4% | dissociation percent ([3]; 5 min): 91.1% | dissociation percent ([3]; 10 min): 100%

CC(=O)O[C@@]12CO[C@@H]1C[C@H](O)[C@@]1(C)C(=O)[C@H](O)C3=C(C)[C@@H](OC(=O)[C@H](OC(=O)C(F)(F)CCCCCN4CC4)[C@@H](NC(=O)OC(C)(C)C)c4ccccc4)C[C@@](O)([C@@H](OC(=O)c4ccccc4)[C@H]21)C3(C)C.CS(=O)(=O)O [Compound 14, 2′-O-[7-N-(aziridin-1-yl)-2,2-difluoroheptanoyl]docetaxel methanesulfonate]
Solubility [6]: 14.3 mg/mL | dissociation percent ([3]; 2 min): 42.1% | dissociation percent ([3]; 5 min): 55.7% | dissociation percent ([3]; 10 min): 72.5%

CC(=O)O[C@H]1C(=O)[C@@]2(C)[C@H]([C@H](OC(=O)c3ccccc3)[C@]3(O)C[C@H](OC(=O)[C@H](OC(=O)C(F)(CCCCCCN(C)C4CCCC4)C(F)(F)F)[C@@H](NC(=O)c4ccccc4)c4ccccc4)C(C)=C1C3(C)C)[C@]1(OC(C)=O)CO[C@@H]1C[C@@H]2O.CS(=O)(=O)O (stereo partly drawn) [Compound 15, 2′-O-[8-(N-methyl-N-cyclopentyl)amino-2(R,S)-2-trifluoromethyl-2-fluorooctanoyl]paclitaxel methanesulfonate]
Solubility [6]: 15.0 mg/mL | dissociation percent ([3]; 2 min): 35.0% | dissociation percent ([3]; 5 min): 46.2% | dissociation percent ([3]; 10 min): 57.9%

CC(C)c1cccc(C(C)C)c1OCOP(=O)(O)O [Fospropofol]
Latent Period [7, 16]: 105 s | Latent Period [7, 17]: 81 s | Persistent period [7, 17]: 804 s

CC(C)c1cccc(C(C)C)c1OC(=O)[C@H](F)CCN(C)C.Cl [J′]
latent period for anesthesia compared to propofol [8]: almost equal to those of propofol | neurotoxic response after waking up [8]: no neurotoxic response was observed | persistent period for anesthesia compared to propofol [8]: almost equal to those of propofol

CC(C)c1cccc(C(C)C)c1O [Propofol, reference compound]
TI Mouse ([9]; 3 mg/ml solution): 4.9 | TI Mouse ([9]; 6 mg/ml solution): 3.8 | ED50 ([9]; 3 mg/ml solution): 7.9 mg/kg | ED50 ([9]; 6 mg/ml solution): 11.3 mg/kg | Mouse LD50 ([9]; 3 mg/ml solution): 38.4 mg/kg | Mouse LD50 ([9]; 6 mg/ml solution): 42.9 mg/kg | Latent Period [10, 18]: 8.4 ± 1.1 s | Persistent period [10, 18]: 324.8 ± 98.9 s | Latent Period [10, 19]: 8.4 ± 1.1 s | Persistent period [10, 19]: 324.8 ± 98.9 s | TI Rat ([11]; 3 mg/ml solution): 5.5 | TI Rat ([11]; 6 mg/ml solution): 4.9 | ED50 ([11]; 3 mg/ml solution): 3.91 mg/kg | ED50 ([11]; 6 mg/ml solution): 3.5 mg/kg | Rat LD50 ([11]; 3 mg/ml solution): 21.5 mg/kg | Rat LD50 ([11]; 6 mg/ml solution): 17.4 mg/kg | Latent Period [7, 16]: 10.7 s

CC(=O)O[C@@]12CO[C@@H]1C[C@H](O)[C@@]1(C)C(=O)[C@H](O)C3=C(C)[C@@H](OC(=O)[C@H](O)[C@@H](NC(=O)OC(C)(C)C)c4ccccc4)C[C@@](O)([C@@H](OC(=O)c4ccccc4)[C@H]21)C3(C)C [docetaxel, reference compound]
Tumor volume (mm^3) (D0) ([12]; PC-3 xenograft, nude mice, D0 IV, single dose, D0 (baseline at grouping)): 111.5 ± 1.3 mm^3 | T/C (%) D20 [12, 20]: −27% | Tumor volume (mm^3) (D20) [12, 20]: 81.4 ± 25.1 mm^3 | Tumor inhibitory percent (%) D20 ([12]; PC-3 xenograft, nude mice, D0 IV, single dose, D20, P(D20)=0.000 vs control): 127% | Weight change (%) D6 ([12]; mouse, in vivo, iv): −12.3% | concentration at 5 min [13]: 769 ng/mL

CC(=O)O[C@H]1C(=O)[C@@]2(C)[C@H]([C@H](OC(=O)c3ccccc3)[C@]3(O)C[C@H](OC(=O)[C@H](O)[C@@H](NC(=O)c4ccccc4)c4ccccc4)C(C)=C1C3(C)C)[C@]1(OC(C)=O)CO[C@@H]1C[C@@H]2O [paclitaxel, reference compound]
concentration at 5 min [14]: 1790 ng/mL | Tumor volume (D0) ([15]; D0, at grouping, 24 mg/kg (paclitaxel 16 mg/kg) D0-4 IV): 134.6 ± 19.7 mm^3 | T/C (%) D22 [15, 21]: −60% | Tumor volume (D22) [15, 21]: 53.7 ± 11.2 mm^3 | Tumor inhibitory percent (%) D22 ([15]; D22, 24 mg/kg (paclitaxel 16 mg/kg) D0-4 IV, P=0.000 compared to the control): 160% | Weight change (%) D4 ([15]; mouse, in vivo): −4.8%
